Usually inhibition stands for the change of the read-out against control, counted positive when it falls. As a reminder, the IC50 is the point on the concentration scale where inhibition reaches its midpoint. The low end stands for higher potency, the high end for lower potency.

One series has as its system influenza A/H5N1. The series is classed as cell-based, influenza A/H5N1 virus.
The conditions of series [1]: cited from earlier work.
The test system of a further series is MDCK cells. The settings on record: dog.
A further series is described as follows: in vitro. The settings on record: dog.
Series [2] deals with influenza A/H5N1 virus. Nature of the series: microbe, parasite or virus in culture. The series is classed as cell-based. The settings on record: H5N1, MDCK, read-out: Viral inhibition percentage, Virucidal.
The subject of series [3] is influenza A/H5N1 virus. Description: microbe, parasite or virus in culture. The settings on record: H5N1, MDCK, read-out: Viral inhibition percentage, Viral Replication. The series is classed as cell-based.
The test system of another series is influenza A/H1N1. Nature of the series: Plaque reduction assay, A/H1N1. The series is classed as cell-based, influenza A/H1N1 virus. The settings on record: A/H1N1, MDCK, low non-toxic concentrations, Fig. 4. Background: In a plaque reduction assay, fewer plaques than in the control indicate reduced infectivity or spread.
Series [4] concerns influenza A/H5N1 virus. Nature of the series: microbe, parasite or virus in culture. The series is classed as cell-based.
Series [5] deals with seasonal influenza A/Egypt/NRC098/2019(H1N1). Nature of the series: microbe, parasite or virus in culture. Format: cell-based. The following applies: H1N1, MDCK, 72 h.
Series [6] has as its system highly pathogenic avian influenza A/chicken/Egypt/N12640A/2016 (H5N1). Description: microbe, parasite or virus in culture. Format: cell-based, influenza A/H5N1 virus.
The test system of series [7] is IAV (A/Puerto Rico/8/1934(H1N1)). The following applies: A/Puerto Rico/8/1934(H1N1) in mice; cited from earlier work.
[8] abbreviates: Influenza A virus, H5N1, MDCK, read-out: Viral inhibition percentage, Viral Adsorption.
The mark [9] stands for this setting: Influenza A virus, H5N1, MDCK, 72 h.

In brackets after ≈: the same amount, converted by molar mass. Counter-ions that a name gives are not always drawn. Like-named read-outs stand apart in the source and are kept apart here. Bounds are passed on as bounds.

For `COc1cc2c(c(OC)c1OC)-c1ccc(OC)c(=O)cc1[C@@H](NC(C)=O)CC2` [Colchicine, (S)-N-(1,2,3,10-tetramethoxy-9-oxo-5,6,7,9-tetrahydrobenzo[a]heptalen-7-yl)acetamide], the “reduction of viral titers (in words)” value with influenza A/H5N1 and with influenza A/H1N1 was “high capacity to reduce viral titers” throughout. Besides, the toxic range in [1] was 0.6 mg. Further, the CC50 worked out at 3370 µg/mL (≈ 8440 µM) with MDCK cells and 2380 µg/mL (≈ 5960 µM) in the series “in vitro”. Also, the figures for the inhibition at 1 µg/mL with influenza A/H5N1 virus [2], in the series on influenza A/H5N1 virus [3] and with influenza A/H5N1 virus [4] (setting [8]) were 25%, 85.7% and 55%, respectively. For the same compound, the inhibition at 10 µg/mL in the series with influenza A/H5N1 virus [2] was determined as 38%; in the series on influenza A/H5N1 virus [3] it was 87%; in the series on influenza A/H5N1 virus [4] (setting [8]) it was 64.1%. Further, the values for the inhibition at 100 µg/mL in the series on influenza A/H5N1 virus [2], in the series on influenza A/H5N1 virus [3] and in the series on influenza A/H5N1 virus [4] (setting [8]) were 47.1%, 91.1% and 73%, respectively. In addition, the “Viral inhibition percentage, Viral Adsorption” value in the series on influenza A/H5N1 virus [4] is recorded as 73.05%.
With `CC[C@@H]1C(=O)OC[C@@H]1Cc1cncn1C` [Pilocarpine HCl], the “reduction of viral titers (in words)” value in the series on influenza A/H5N1 and with influenza A/H1N1 was “high capacity to reduce viral titers” each time. The IC50 was determined as 0.637 µg/mL in series [5] and 0.21 µg/mL in [6] (setting [9]). This compound also yielded a CC50 in the series “in vitro” of 3320 µg/mL. In addition, the inhibition at 10 µg/mL in the series on influenza A/H5N1 virus [2] is 94.9%; with influenza A/H5N1 virus [3], 35.3%; with influenza A/H5N1 virus [4] (setting [8]), 37.8%. Further, the inhibition at 100 µg/mL came out at 99.1% in the series on influenza A/H5N1 virus [2], 46.9% in the series on influenza A/H5N1 virus [3] and 44.6% with influenza A/H5N1 virus [4] (setting [8]). In addition, the results for the inhibition at 1000 µg/mL with influenza A/H5N1 virus [2], with influenza A/H5N1 virus [3] and with influenza A/H5N1 virus [4] (setting [8]) were 100%, 53.1% and 56.9%, respectively.
As for `Cn1c(=O)c2c(ncn2C)n(C)c1=O` [Caffeine], the CC50 in the series “in vitro” is over 10000 µg/mL. For the same compound, the IC50 in [6] (setting [9]) stood at 85.7 µg/mL (≈ 441 µM).
On to `C[n+]1cccc(C(=O)[O-])c1` [Trigonelline HCl], for which, in the series “in vitro”, the CC50 was over 10000 µg/mL.
Regarding `CC(=O)N[C@H]1[C@H]([C@H](O)[C@H](O)CO)OC(C(=O)O)=C[C@@H]1N=C(N)N` [Zanamivir], the values for the IC50 in series [5] and in series [6] (setting [9]) were 0.265 µg/mL (≈ 0.797 µM) and 0.358 µg/mL (≈ 1.08 µM), respectively. In “in vitro”, the CC50 is over 10000 µg/mL.
In series [6] (setting [9]), `CN1C2CC(OC(=O)C(CO)c3ccccc3)CC1C1OC12` (single isomer, unassigned; (-)) [(-)Scopolamine HCl] returned an IC50 of 360 µg/mL.
For `CN[C@@H](C)[C@H](O)c1ccccc1` [Ephedrine HCl], the CC50 in the series “in vitro” is over 10000 µg/mL. For the same compound, the IC50 in series [6] and in series [6] (setting [9]) was 186 µg/mL in each case.
For the compound `C=C[C@H]1C[N@@]2CC[C@H]1C[C@H]2[C@H](O)c1ccnc2ccc(OC)cc12` [Quinine sulphate], the “antiviral effect in mice (in words)” value in series [7] is given as “exert an antiviral effect”. In addition, the CC50 in “in vitro” is over 10000 µg/mL. Besides, in [6], the “anti-influenza activity against A/H5N1 virus (in words)” value is listed as “no anti-influenza activity”.
As to `CN1C2CCC1CC(OC(=O)C(CO)c1ccccc1)C2` (stereo not shown) [Atropine sulphate], the “reduction of viral titers (in words)” value with influenza A/H5N1 and in the series on influenza A/H1N1 was “high capacity to reduce viral titers” in each case. Moreover, the IC50 came to 0.204 µg/mL in series [5] and 2.26 µg/mL in [6] (setting [9]). Further, the results for the inhibition at 1 µg/mL with influenza A/H5N1 virus [2], in the series with influenza A/H5N1 virus [3] and in the series on influenza A/H5N1 virus [4] (setting [8]) were 90.5%, 32.8% and 36.2%, respectively. Moreover, the inhibition at 10 µg/mL in the series with influenza A/H5N1 virus [2] came to 97.6%; with influenza A/H5N1 virus [3], 41.2%; in the series with influenza A/H5N1 virus [4] (setting [8]), 45.2%. Besides, the results for the inhibition at 100 µg/mL with influenza A/H5N1 virus [2], in the series with influenza A/H5N1 virus [3] and in the series with influenza A/H5N1 virus [4] (setting [8]) were 100%, 52.9% and 52.4%, respectively.
In turn, `COc1ccc(Cc2nccc3cc(OC)c(OC)cc23)cc1OC` [Papaverine HCl] displayed a CC50 in the series “in vitro” of 274 µg/mL. In addition, the “anti-influenza activity against A/H5N1 virus (in words)” value in [6] is given as “poor anti-influenza activity”.
`C=C[C@H]1C[N@@]2CC[C@H]1C[C@@H]2[C@@H](O)c1ccnc2ccc(OC)cc12` [Quinidine Sulphate, Quinidine sulphate] returned a CC50 in the series “in vitro” of over 10000 µg/mL.

The values above are taken from article PMC10804494 (BMC Complementary Medicine and Therapies, 2024).
